Values of other authors as cited in patent US7579489B2, “Processes for the preparation and purification of hydroxymethylfuraldehyde and derivatives” (Archer-Daniels-Midland Company, priority 2004, dated 2009).

Settings: water/octanol; values taken from Hansch & Leo (1979) and Leo, Hansch & Elkins (1971)

CCC(C)=O [2-Butanone]
Log P: 0.29

CC(=O)CC(C)C [Methyl isobutyl ketone]
Log P: 1.32

CCCC(C)=O [2-Pentanone]
Log P: 0.91

NC=O [Formamide]
Log P: −1.51

ClC(Cl)Cl [Chloroform]
Log P: 2.24

CCOC(C)=O [Ethyl acetate]
Log P: 0.66

CCCCCC(C)=O [2-Heptanone]
Log P: 1.83

C1COCCO1 [Dioxane]
Log P: −0.27

CCCCOC(C)=O [Butyl acetate]
Log P: 1.71
